According to paper PMC6211275, “Phosphonate inhibitors of West Nile virus NS2B/NS3 protease” (Journal of Enzyme Inhibition and Medicinal Chemistry, 2018):

Tests used:
[1] = system: West Nile virus NS2B/NS3 protease; details: ref 15 (Behnam et al.); cited from earlier work
[2] = system: Dengue and WNV titres; set-up: method as in earlier work; details: cell-based assays of virus replication; ref 15 (Behnam et al.); read-out: EC50, reduction of Dengue and WNV titres; cited from earlier work
[3] = target: T1, Bovine β-trypsin (Bos taurus, UniProt P00760); assay: Control proteases inhibition assay, trypsin; type: biochemical; details: inhibitor concentration 25 μM, after 30 min incubation at 37 °C
T1 construct: purchased AppliChem, Łódź, Poland
T1 sequence (P00760 24-246): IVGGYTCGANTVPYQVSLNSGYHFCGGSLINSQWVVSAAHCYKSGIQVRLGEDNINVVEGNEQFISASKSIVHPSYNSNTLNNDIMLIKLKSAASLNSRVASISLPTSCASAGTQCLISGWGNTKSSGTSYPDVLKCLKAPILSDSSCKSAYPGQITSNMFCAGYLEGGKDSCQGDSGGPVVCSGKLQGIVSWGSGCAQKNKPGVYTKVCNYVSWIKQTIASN
Description: (§1) Bovine β-trypsin (AppliChem, Łódź, Poland), human cathepsin G (Biocentrum, Kraków, Poland) and Human Airway Trypsin-like Protease (HAT) (R&D Systems, Minneapolis, MN) were used as control proteases to screen the activity of NS2B/NS3 protease inhibitors (36–39) obtained in this study. Inhibitors were assayed in 96-well microplates in the 0.1 M HEPES, 0.5 M NaCl, 0.03%, pH 7.5 Triton X-100 (for bovine β-trypsin and cathepsin G). Bovine β-trypsin (15 nM), human cathepsin G (150 nM) or HAT protease (0.001 µg) was pre-incubated with tested inhibitor (25 µM) in the protease buffer at 37 °C for 10 min prior to the addition of the fluorescent substrate: Cbz-Arg-AFC (synthesised in-house according to the procedure described by Bissell[30]; 50 µM; λex = 400 nm, λem = 505 nm, for bovine β-trypsin); MeO-Suc-Ala-Ala-Pro-Val-AMC (Bachem, Bubendorf, Switzerland; 40 µM, λex = 340 nm, λem = 440 nm, for human cathepsin G) or Phe-Ser Arg-AMC (Bachem, Bubendorf, Switzerland; 40 µM, λex = 340 nm, λem = 440 nm, for HAT protease). The progress of the reactions was monitored continuously at 37 °C on a Spectra Max Gemini XPS spectrofluorometer for 20 min. Control curves in the absence of inhibitor were linear. The rate of the tested protease inhibition was calculated from the linear range of the plot.

[4] = target: T2, human cathepsin G (Homo sapiens, UniProt P08311); assay: Control proteases inhibition assay, cathepsin G; type: biochemical; details: inhibitor concentration 25 μM, after 30 min incubation at 37 °C
T2 construct: purchased Biocentrum, Kraków, Poland
T2 sequence (P08311 21-255): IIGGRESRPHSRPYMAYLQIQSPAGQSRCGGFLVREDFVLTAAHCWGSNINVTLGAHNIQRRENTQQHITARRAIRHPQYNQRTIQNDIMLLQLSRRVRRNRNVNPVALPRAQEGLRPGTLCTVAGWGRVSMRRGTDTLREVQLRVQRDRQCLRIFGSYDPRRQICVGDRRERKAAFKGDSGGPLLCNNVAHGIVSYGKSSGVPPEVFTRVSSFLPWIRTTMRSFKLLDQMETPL
Description: as §1

[5] = Stability in assay buffer (HPLC analysis); type: physicochemical
Description: Stability in assay buffer. A stock solution of compound (38) (10 mM in acetonitrile) was added to the assay buffer (50 mM Tris, 1 mM Chaps, 20% glycerol, pH 8.5) to make a final concentration of 2 mg/mL and incubated at 37°C. The resulting mixture was subjected to HPLC analysis to determine compound stability using a Discovery® BIO Wide Pore C8 HPLC Column (250 mm × 4.6 mm, 10 μm) with a 1 mL/min flow rate, gradient 0−100% [0.05% TFA in acetonitrile] in [0.05% TFA in water] over a period of 15 min.

[6] = target: WNV NS2B/NS3 protease (West Nile virus, UniProt P06935); assay: In vitro NS2B/NS3 protease inhibition (fluorescent substrate Pyr-RTKR-AMC, progress curve method); type: biochemical
Chain of WNV NS2B/NS3 protease (P06935 1502-1680): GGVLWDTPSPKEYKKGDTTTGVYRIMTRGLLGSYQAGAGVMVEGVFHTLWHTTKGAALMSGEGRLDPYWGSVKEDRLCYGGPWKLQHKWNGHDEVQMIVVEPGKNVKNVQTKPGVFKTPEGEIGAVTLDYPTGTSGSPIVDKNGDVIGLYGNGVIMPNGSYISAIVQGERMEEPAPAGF
Chain of WNV NS2B/NS3 protease (P06935 1419-1466): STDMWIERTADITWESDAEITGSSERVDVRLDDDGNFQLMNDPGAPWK
Description: For the initial screening, Cbz-protected aminophosphonates were assayed in 96 well microplates (Nunc™ F96 MicroWell™ White Polystyrene Plate) in the following protease buffer: 50 mM Tris, 1 mM Chaps, 20% glycerol, pH 8.5. WNV NS2B/NS3 protease (AnaSpec, Liege, Belgium; 20 nM) was pre-incubated with tested inhibitor (100 µM) in the protease buffer at 37 °C for 10 min prior an addition of the fluorescent substrate Pyr-RTKR-AMC (AnaSpec, Liege, Belgium; 20 µM). The progress of the reaction was monitored continuously (λex = 354 nm, λem = 442 nm) at 37 °C on a Spectra Max Gemini XPS spectrofluorometer (Molecular Devices, Sunnyvale, CA) for 30 min. […] In 96 well microplates narrowed concentration of inhibitors and constant substrate concentration (Pyr-RTKR-AMC, C = 20 µM, KM = 59 µM) were prepared. The enzyme solution was added and enzymatic reaction was monitored (Figure S1). Using a model for irreversible inhibition, in which the first order inactivation rate constant kobs is hyperbolic dependent from the inhibitor concentration Ki and k2/Ki values were calculated (equations (1–4) in supplementary material)[29]. Control progress curves in the absence of inhibitor were linear.
The inhibitory activity of the compounds was determined by the progress curve method. First the data from nonlinear progress curves with time dependent inhibitors were fit to eq.1 to obtain the first-order rate constant (kobs):
The second-order rate constants (k2/KI) and (KI)app values were calculated using hyperbolic regression according to equation 3: […]
KI values were calculated according to equation 3: […]

[7] = target: T3, Human Airway Trypsin-like Protease (HAT) (Homo sapiens, UniProt O60235); assay: Control proteases inhibition assay, HAT protease; type: biochemical; details: inhibitor concentration 25 μM, after 30 min incubation at 37 °C
T3 construct: purchased R&D Systems, Minneapolis, MN
T3 sequence (O60235 1-418): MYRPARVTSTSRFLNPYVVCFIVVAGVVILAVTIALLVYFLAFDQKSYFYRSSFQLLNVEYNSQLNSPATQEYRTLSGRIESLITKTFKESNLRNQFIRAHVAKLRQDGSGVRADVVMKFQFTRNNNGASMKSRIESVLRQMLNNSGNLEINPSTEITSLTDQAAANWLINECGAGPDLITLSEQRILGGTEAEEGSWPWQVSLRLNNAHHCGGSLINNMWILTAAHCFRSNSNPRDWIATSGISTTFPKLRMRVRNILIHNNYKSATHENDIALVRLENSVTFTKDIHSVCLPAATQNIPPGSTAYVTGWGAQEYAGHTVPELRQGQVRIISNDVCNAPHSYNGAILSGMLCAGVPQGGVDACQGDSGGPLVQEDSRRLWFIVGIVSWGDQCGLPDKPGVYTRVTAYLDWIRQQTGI
Description: as §1

## N=C(N)NCCC[C@H](Nc1nccs1)C(=O)N[C@@H](CCCCN)C(=O)N[C@H](C(N)=O)c1ccc(OCc2ccc(C(F)(F)F)cc2)cc1 [Compound 5]
[1]
  Ki: 39 nM
[2]
  EC50: 15500 nM

## N=C(N)NCCC[C@@H](NC(=O)[C@@H](CCCCN)NC(=O)OCc1ccccc1)C(=O)NC(Cc1ccc(NC(=N)N)cc1)P(=O)(Oc1ccccc1)Oc1ccccc1 (stereo partly drawn) [Compound 38, Cbz-Lys-Arg-(4-GuPhe)^P(OPh)2]
[3]
  percent of inhibition, Trypsin: no significant inhibition
[3]; read-out: percent of inhibition, Trypsin
  inhibition at 25 µM: 4%
[4]
  percent of inhibition, CatG: no significant inhibition
[4]; read-out: percent of inhibition, CatG
  inhibition at 25 µM: 7%
[5]; during enzyme inhibition assay time, assay buffer pH 8.5
  inhibitor degradation: ~ 1%
[5]; over 6 hours, assay buffer pH 8.5, 37 °C
  degradation of compound: ~ 13%
[5]; time 0.0 h, assay buffer pH 8.5, 37 °C
  % of initial inhibitor concentration: 100%
[5]; time 0.5 h, assay buffer pH 8.5, 37 °C
  % of initial inhibitor concentration: 98,93%
[5]; time 1.0 h, assay buffer pH 8.5, 37 °C
  % of initial inhibitor concentration: 98,12%
[5]; time 1.5 h, assay buffer pH 8.5, 37 °C
  % of initial inhibitor concentration: 96,27%
[5]; time 2.0 h, assay buffer pH 8.5, 37 °C
  % of initial inhibitor concentration: 95,19%
[5]; time 2.5 h, assay buffer pH 8.5, 37 °C
  % of initial inhibitor concentration: 95,04%
[5]; time 3.0 h, assay buffer pH 8.5, 37 °C
  % of initial inhibitor concentration: 93,35%
[5]; time 3.5 h, assay buffer pH 8.5, 37 °C
  % of initial inhibitor concentration: 91,90%
[5]; time 4.0 h, assay buffer pH 8.5, 37 °C
  % of initial inhibitor concentration: 91,11%
[5]; time 4.5 h, assay buffer pH 8.5, 37 °C
  % of initial inhibitor concentration: 88,43%
[5]; time 5.0 h, assay buffer pH 8.5, 37 °C
  % of initial inhibitor concentration: 86,99%
[5]; time 5.5 h, assay buffer pH 8.5, 37 °C
  % of initial inhibitor concentration: 86,84%
[5]; time 6.0 h, assay buffer pH 8.5, 37 °C
  % of initial inhibitor concentration: 86,73%
[6]
  Ki: 400 ± 30 nM
[6]; read-out: k2/Ki
  kinact/KI: 28300 M⁻¹ s⁻¹
[7]
  percent of inhibition, HAT: no significant inhibition
[7]; read-out: percent of inhibition, HAT
  inhibition at 25 µM: 5%
